Data set [1] deals with A549 human lung carcinoma. The experiment in a line: Cytotoxicity IC50 (after Berjeron et al).
Source text: (§1) Methodology: after Berjeron et al, Biochem and Bioph Res. Comm., 1984, 121, 3, 848-854.
(§2) P388=Murine lymphoma. A549=human lung carcinoma. HT-29=human colon carcinoma. MEL-28=human melanoma.
(§3) A549=human lung carcinoma. HT-29=human colon carcinoma. MEL-28=human melanoma.
Data set [2] concerns HT-29 human colon carcinoma. The data set can be described thus: Cytotoxicity IC50 (after Berjeron et al).
Source text: as §1, §2, §3
Where [3] appears, read: Homo sapiens, A549, read-out: Cytotoxicity of aplidine derivatives IC50 (Molar) A549.
Where [4] appears, read: Homo sapiens, HT-29, read-out: Cytotoxicity of aplidine derivatives IC50 (Molar) HT29.
[5] abbreviates: read-out: Cytotoxicity of aplidine derivatives IC50 (Molar) A549, A549.
Setting [6] is: read-out: Cytotoxicity of aplidine derivatives IC50 (Molar) HT29, HT29.

The source of these data is patent US20080009435A1, “Synthetic methods for aplidine and new antitumoral derivatives, methods of making and using them” (Pharma Mar, S.A., a Spain corporation, priority 2000, published 2008).

Where two headings read alike, the source gives them in different places. *1 amine or outer side, *2 acyl side, *3 side chain or, on linkers, in order; H or OH if unused. Where a SMILES comes first, the peptide text is derived from it. Bridges are numbered along the chain shown (N, C = ends). [ ]: non-standard residue; d: D form. The star is where a group is joined. X1 = CC[C@H](C)[C@@H](N[*:1])[C@@H](O)CC(=O)O[C@H](C(=O)[C@H](C)C(=O)[*:2])C(C)C; X2 = CC[C@H](C)[C@@H](N[*:1])[C@@H](O)CC(=O)[*:2]; X4 = CC(C)[C@H](N[*:1])C(=O)[C@H](C)C(=O)[*:2]; NMeY = CN[C@@H](Cc1ccc(O)cc1)C(=O)O; X6 = O=C1NC2CSC(CCCCC(=O)*)C2N1; dNMeL = CN[C@H](CC(C)C)C(=O)O; Hiv = CC(C)[C@H](O)C(=O)O; Isobutyryl = CC(C)C(=O)*; Pyruvoyl = CC(=O)C(=O)*; Boc = CC(C)(C)OC(=O)*; CO = O=C([*:1])[*:2]; X5 = S=C(Nc1ccccc1)*; NHPh = c1ccc(N*)cc1; Ms = CS(=O)(=O)*; NHBu = CCCCN*

`CC[C@H](C)[C@H]1NC(=O)[C@@H](NC(=O)[C@@H](CC(C)C)N2CC[C@]3(CCCN3C(=O)C(C)C)C2=O)[C@@H](C)OC(=O)[C@H](Cc2ccc(OC)cc2)N(C)C(=O)[C@@H]2CCCN2C(=O)[C@H](CC(C)C)NC(=O)[C@@H](C)C(=O)[C@H](C(C)C)OC(=O)C[C@@H]1O` [9SISAPL1, [(5R)-1-(isobutiryl)-7-[(R)-1-carboxy-3-methylbutyl]-6-oxo-1,7-diazaspiro[4,4]nonane]^7-9-Aplidine]: the half-inhibitory concentration (IC50) in data set [1] (setting [3]) and in data set [2] (setting [4]) was 89.1 nM in each case.
As to `CC[C@H](C)[C@H]1NC(=O)[C@@H](NC(=O)[C@@H](CC(C)C)N(C)C(=O)CCCCC2SCC3NC(=O)NC32)[C@@H](C)OC(=O)[C@H](Cc2ccc(OC)cc2)N(C)C(=O)[C@@H]2CCCN2C(=O)[C@H](CC(C)C)NC(=O)[C@@H](C)C(=O)[C@H](C(C)C)OC(=O)C[C@@H]1O` (some centres unmarked) [8BISAPL1, [Biotin]^8-didemnin A] (X6-[dNMeL]T[X1]LP[NMeY](Me); ester 2-C), the IC50 in data set [1] (setting [3]) and in data set [2] (setting [4]) was 4.27 nM in each case.
For [Hiv]^3-[Z-Ala]^9-aplidine [9ZASHPL2], the IC50 in data set [1] (setting [5]) and in data set [2] (setting [6]) was 4.21 nM each time.
Consider `CC[C@H](C)[C@H]1NC(=O)[C@@H](NC(=O)[C@@H](CC(C)C)N2CC[C@]3(CCCN3C(=O)C(C)=O)C2=O)[C@@H](C)OC(=O)[C@H](Cc2ccc(OC)cc2)N(C)C(=O)[C@@H]2CCCN2C(=O)[C@H](CC(C)C)NC(=O)[C@H](C(C)C)OC(=O)C[C@@H]1O` [9SPSHPL1, [Hiv]^3-[(5R)-1-(pyruvyl)-7-[(1R)-1-carboxy-3-methylbutyl]-6-oxo-1,7-diazaspiro[4,4]nonane]^7-9-aplidine], for which the IC50 in data set [1] (setting [3]) and in data set [2] (setting [4]) was 93.8 nM throughout.
As for `CC[C@H](C)[C@H]1NC(=O)[C@@H](NC(=O)[C@@H](CC(C)C)N(C)S(C)(=O)=O)[C@@H](C)OC(=O)[C@H](Cc2ccc(OC)cc2)N(C)C(=O)[C@@H]2CCCN2C(=O)[C@H](CC(C)C)NC(=O)[C@@H](C)C(=O)[C@H](C(C)C)OC(=O)C[C@@H]1O` [8MSAPL1, [Methylsulphonyl]^8-didemnin A] (Ms-[dNMeL]T[X1]LP[NMeY](Me); ester 2-C), the IC50 in data set [1] (setting [3]) and in data set [2] (setting [4]) was 0.979 nM throughout.
As for `CCCCNC(=O)N(C)[C@H](CC(C)C)C(=O)N[C@@H]1C(=O)N[C@H]([C@@H](C)CC)[C@@H](O)CC(=O)O[C@@H](C(C)C)C(=O)[C@H](C)C(=O)N[C@@H](CC(C)C)C(=O)N2CCC[C@H]2C(=O)N(C)[C@@H](Cc2ccc(OC)cc2)C(=O)O[C@@H]1C` [8BUSAPL1, [Butylurea]^8-didemnin A] ({NHBu-CO}-[dNMeL]T[X1]LP[NMeY](Me); ester 2-C), the IC50 in data set [1] (setting [3]) and in data set [2] (setting [4]) was 0.0959 nM throughout.
For `CC[C@H](C)[C@H]1NC(=O)[C@@H](NC(=O)[C@@H](CC(C)C)N(C)C(=O)[C@@H]2CCCN2C(=O)C(C)C)[C@@H](C)OC(=O)[C@H](Cc2ccc(OC)cc2)N(C)C(=O)[C@@H]2CCCN2C(=O)[C@H](CC(C)C)NC(=O)[C@H](C(C)C)OC(=O)C[C@@H]1O` [9ISHPL1, [Hiv]^3-[Isobutyryl]^9-aplidine] (Isobutyryl-P[dNMeL]T[X2][Hiv]LP[NMeY](Me); ester 3-C), the IC50 in data set [1] (setting [3]) and in data set [2] (setting [4]) was 0.474 nM each time.
On to “[Hiv]^3-[Z-NVa-Pro]^9-aplidine [9NVSHPL2]”, for which the IC50 in data set [1] (setting [5]) and in data set [2] (setting [6]) was 8.22 nM in each case.
Regarding `CC[C@H](C)[C@H]1NC(=O)[C@@H](NC(=O)[C@@H](CC(C)C)NC)[C@@H](C)OC(=O)[C@H](Cc2ccc(OC)cc2)N(C)C(=O)[C@@H]2CCCN2C(=O)[C@H](CC(C)C)NC(=O)[C@@H](C)C(=O)[C@H](C(C)C)NC(=O)C[C@@H]1O` [SNPL2, [Aip]^3-Didemnin A] (H-[dNMeL]T[X2][X4]LP[NMeY](Me); ester 2-C), the IC50 in data set [1] (setting [3]) and in data set [2] (setting [4]) was 10.6 nM in each case.
Regarding `CC[C@H](C)[C@H]1NC(=O)[C@@H](NC(=O)[C@@H](CC(C)C)N(C)C(=S)Nc2ccccc2)[C@@H](C)OC(=O)[C@H](Cc2ccc(OC)cc2)N(C)C(=O)[C@@H]2CCCN2C(=O)[C@H](CC(C)C)NC(=O)[C@@H](C)C(=O)[C@H](C(C)C)OC(=O)C[C@@H]1O` [8PTSAPL1, [Pheylthiourea]^8-didemnin A] (X5-[dNMeL]T[X1]LP[NMeY](Me); ester 2-C), the IC50 in data set [1] (setting [3]) and in data set [2] (setting [4]) was 0.927 nM in each case.
Turning to [NVa-Pro]^9-aplidine [9NVSAPL1], the IC50 in data set [1] (setting [5]) and in data set [2] (setting [6]) was 0.439 nM throughout.
On to `CC[C@H](C)[C@H]1NC(=O)[C@@H](NC(=O)[C@@H](CC(C)C)N(C)C(=O)Nc2ccccc2)[C@@H](C)OC(=O)[C@H](Cc2ccc(OC)cc2)N(C)C(=O)[C@@H]2CCCN2C(=O)[C@H](CC(C)C)NC(=O)[C@@H](C)C(=O)[C@H](C(C)C)OC(=O)C[C@@H]1O` [8PUSAPL1, [Phenylurea]^8-didemnin A] ({NHPh-CO}-[dNMeL]T[X1]LP[NMeY](Me); ester 2-C), for which the IC50 in data set [1] (setting [3]) and in data set [2] (setting [4]) was 0.0942 nM each time.
On to `CC[C@H](C)[C@H]1NC(=O)[C@@H](NC(=O)[C@@H](CC(C)C)N(C)C(=O)[C@@H](NC(=O)C(C)C)C(C)C)[C@@H](C)OC(=O)[C@H](Cc2ccc(OC)cc2)N(C)C(=O)[C@@H]2CCCN2C(=O)[C@H](CC(C)C)NC(=O)[C@H](C(C)C)OC(=O)C[C@@H]1O` [8V9ISHPL1, [Hiv]^3-[Val]^8-[Isobutyryl]^9-didemnin A] (Isobutyryl-V[dNMeL]T[X2][Hiv]LP[NMeY](Me); ester 3-C), for which the IC50 in data set [1] (setting [3]) and in data set [2] (setting [4]) was 9.46 nM each time.
For [coumarin]^8-didemnin A [8CSAPL1], the IC50 in data set [1] (setting [5]) and in data set [2] (setting [6]) was 0.941 nM throughout.
Regarding [Hiv]^3-[Pro]^8-didemnin A [8PSHPL1], the IC50 in data set [1] (setting [5]) and in data set [2] (setting [6]) was 1.01 nM in each case.
With `CC[C@H](C)[C@H]1NC(=O)[C@@H](NC(=O)[C@@H](CC(C)C)N(C)C(=O)[C@@H]2CCCN2C(=O)[C@H](C)NC(=O)OC(C)(C)C)[C@@H](C)OC(=O)[C@H](Cc2ccc(OC)cc2)N(C)C(=O)[C@@H]2CCCN2C(=O)[C@H](CC(C)C)NC(=O)[C@H](C(C)C)OC(=O)C[C@@H]1O` [9BASHPL2, [Hiv]^3-[Boc-Ala]^9-aplidine] (Boc-AP[dNMeL]T[X2][Hiv]LP[NMeY](Me); ester 4-C), the IC50 in data set [1] (setting [3]) and in data set [2] (setting [4]) was 8.65 nM each time.
For the molecule `CC[C@H](C)[C@H]1NC(=O)[C@@H](NC(=O)[C@@H](CC(C)C)N(C)C(=O)[C@@H]2CCCN2C(=O)C(C)=O)[C@@H](C)OC(=O)[C@H](Cc2ccc(OC)cc2)N(C)C(=O)[C@@H]2CCCN2C(=O)[C@H](CC(C)C)NC(=O)[C@@H](C)C(=O)[C@H](C(C)C)NC(=O)C[C@@H]1O` [SNPL1, [Aip]^3-Aplidine] (Pyruvoyl-P[dNMeL]T[X2][X4]LP[NMeY](Me); ester 3-C), the IC50 amounted to 0.901 nM in data set [1] (Homo sapiens, A549, read-out: Cytotoxicity of [aa3]-aplidine Congeners IC50 (Molar) A549) and 0.901 nM in data set [2] (Homo sapiens, HT-29, read-out: Cytotoxicity of [aa3]-aplidine Congeners IC50 (Molar) HT29).
`CC[C@H](C)[C@H]1NC(=O)[C@@H](NC(=O)[C@@H](CC(C)C)N2CC[C@]3(CCCN3C(=O)C(C)=O)C2=O)[C@@H](C)OC(=O)[C@H](Cc2ccc(OC)cc2)N(C)C(=O)[C@@H]2CCCN2C(=O)[C@H](CC(C)C)NC(=O)[C@@H](C)C(=O)[C@H](C(C)C)OC(=O)C[C@@H]1O` [9SPSAPL1, [(5R)-1-(pyruvyl)-7-[(1R)-1-carboxy-3-methylbutyl]-6-oxo-1,7-diazaspiro[4,4]nonane]^7-9-aplidine]: the IC50 came out at 8.55 nM in data set [1] (setting [3]) and 8.9 nM in data set [2] (setting [4]).
Consider [Hiv]^3-[NVa-Pro]^9-aplidine [9NVSHPL1], for which the IC50 in data set [1] (setting [5]) and in data set [2] (setting [6]) was 0.923 nM each time.

In general, IC50 refers to the concentration that inhibits the measured activity by half.
